Laboratory results: US20260327198A1, “2-DIARYLMETHYL-4-AMINOTETRAHYDROPYRAN SULFONIMIDAMIDES AS ANTICANCER, ANTIINFLAMMATORY, ANTIFIBROTIC AND NEUROPROTECTIVE AGENTS” (Atux Iskay LLC, priority 2022, published 2026)

Columns and labels:
[1] = test system: mouse models of allergic airway disease; conditions: small molecule activators of PP2A; cited from earlier work
[2] = test system: D425 medulloblastoma cells; assay: D425 medulloblastoma cell viability / growth inhibition (CellTiter-Glo); format: cell-based; conditions: n = 3, 0.1% DMSO
Experimental: D425 medulloblastoma cells were purchased from SigmaAldrich. D425 meduloblastoma cells were cultured in improved Dulbecco's modified Eagle's medium (DMEM) Richter's modification supplemented with 20% fetal bovine serum and 1% Penicillin-streptomycin. Incubation was performed at 37° C. and 5% CO2.
D425 cells were seeded at 3000-3500 cells/90 μL growth medium per well on 96-well tissue culture plates. Cells were incubated overnight to allow them to recover. Next day cells were treated with tested compounds and incubated for 48 hours.
Cell Proliferation assays in triplicate were performed at each concentration. Compounds test range was 1-30 μM (0, 5, 10, 15, 20, 25, and 30). The compounds were dissolved in DMSO. A series of dilutions were made in 1% DMSO in growth medium so that the final concentration of DMSO is 0.1% in all of treatments.
After treatment, cells were allowed to equilibrate at room temperature for one hour. Cell proliferation was measured by Luminescence quantification using Promega CellTiter-Glo Luminescent Cell Viability Assay. To perform the assay, 90 μL of Celltiter-Glo substrate was added to each well, plates were shake for 2 minutes and allowed to equilibrate for 10 minutes at room temperature. Luminescence intensity was measured using the Spectramax i3x plate reader.
The Luminescence intensity data were analyzed using the computer software Graphpad Prism. In the absence of the compound, the luminescence intensity (Lt) in each data set was defined as 100% cell viability. The percent cell in the presence of each compound was calculated according to the following equation: % Cell=L/Lt, were L=the luminescence intensity in the presence of the compound.
The values of % cell versus a series of compound concentrations (0, 5, 10, 15, 20, 25, and 30 μM) were then plotted using Nonlinear regression analysis of Sigmoidal dose-response curve. IC50 value was determined by the concentration causing a half-maximal percent activity.

[3] = test system: phosphatase activity in ApoE transfected A172 glioblastoma cells; assay: Cellular in vitro phosphatase activation assay (Malachite Green, ApoE cDNA transfected A172 cells); format: cell-based; conditions: Homo sapiens, A 172, A172 glioblastoma cells transfected with ApoE cDNA, 24 hours, n = 3, read-out: % increase from ApoE transfected cell at 5 μM test compound concentration
Experimental: Cellular in vitro phosphatase activation assay was performed using the method of Theendakara et al, Molecular and Cellular Neuroscience, 83 (2017), pages 83-91 which is described below:
A172 glioblastoma cells were cultured in Dulbecco's modified Eagle's medium (DMEM) supplemented with 10% fetal bovine serum and 1% Penicillin-streptomycin. Incubation was performed at 37° C. and 5% CO2.
A172 cells were seeded at 5×10^5 cells/2.5 ml growth medium (without antibiotics) per well on 6-well tissue culture plates. Cells were incubated overnight to allow them to recover and reattach. […]
After 24 hrs, cells were washed twice with imidazole buffer and lysed using NP-40 Lysis buffer. […] The amount of phosphate release in the assay was determined by measuring absorbance at 620 nm using the Spectramax i3x plate reader.
The absorbance intensity data were analyzed using the computer software Graphpad Prism. The phosphate concentration for each sample was determined from the standard curve using phosphate standard concentrations. In order to compare samples, the first set (column A) were there was no transfection performed and no compound added, was designated a baseline; the absorbance measurement in this column was set as 100% phosphatase activity.

IC50 ([2]; 48 hours)	IC50 ([2]; Medulloblastoma cell, 48 h)	SMILES	development of inflammation, airway hyperreactivity in mouse models of allergic airway disease [1]	further results
		CCCCCCCCc1ccc(CCC(N)(CO)CO)cc1 [fingolimod]	inhibited the development of inflammation, airway hyperreactivity	
9.5 µM		N=S(=O)(N[C@H]1CCOC(C2c3ccccc3CCc3ccccc32)C1)c1ccc(OC(F)(F)F)cc1 (single isomer, unassigned) [Example 4]		
		CCCCCCCOc1ccc(CCC(C)(N)CO)cc1 [AAL(S), 2-amino-4-(4-(heptyloxy)phenyl)-2-methylbutan-1-ol]	inhibited the development of inflammation, airway hyperreactivity	
	8.3 µM	N=S(=O)(N[C@H]1CCOC(C2c3ccccc3CCc3ccccc32)C1)c1ccc(OC(F)(F)F)cc1 (single isomer, unassigned) [Example 3]		activation at 5 µM [3]: 22%
10.4 µM		N=S(=O)(N[C@H]1CCO[C@@H](C(c2ccc(F)cc2)c2ccc(F)cc2)C1)c1ccc(OC(F)(F)F)cc1 (single isomer, unassigned) [Example 7-isomer2]		
	14.3 µM	N=S(=O)(N[C@H]1CCO[C@@H](C(c2ccc(F)cc2)c2ccc(F)cc2)C1)c1ccc(OC(F)(F)F)cc1 (single isomer, unassigned) [Example 7-isomer1]		
